Results: patent US8217029B2, “Oxazolidinone antibiotics” (Actelion Pharmaceuticals Ltd, priority 2007, dated 2012)
In brackets after ≈: the same amount, converted by molar mass.

Test system: S aureus A798
Assay: Minimal inhibitory concentration (MIC), microdilution method in cation-adjusted Mueller-Hinton Broth following NCCLS guidelines
Assay type: cell-based
Details: pH of test medium 7.2-7.3
Procedure, shortened: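 Broth microdilution per NCCLS M7-A4 in cation-adjusted Mueller-Hinton broth at pH 7.2-7.3; MIC reported in mg/l.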

MIC [µg/mL]	SMILES
≤ 0.031	N#Cc1ccc2nccc(N3CC(NC[C@@H]4CN(c5ccc6c(c5)NC(=O)CS6)C(=O)O4)C3)c2c1 [Example 161, 4-(3-{[(R)-2-oxo-3-(3-oxo-3,4-dihydro-2H-benzo[1,4]thiazin-6-yl)-oxazolidin-5-ylmethyl]amino}-azetidin-1-yl)-quinoline-6-carbonitrile]
≤ 0.031	COc1ccc2ncc(F)c(N3CCN(C[C@@H]4CN(c5ccc6c(c5)NC(=O)CS6)C(=O)O4)CC3)c2n1 [Example 98, 6-{(R)-5-[4-(3-Fluoro-6-methoxy-[1,5]naphthyridin-4-yl)-piperazin-1-ylmethyl]-2-oxo-oxazolidin-3-yl}-4H-benzo[1,4]thiazin-3-one]
≤ 0.031	COc1ccc2ncc(F)c(N3CC(N(C)C[C@@H]4CN(c5ccc6c(c5)NC(=O)CO6)C(=O)O4)C3)c2n1 [Example 127, 6-[(R)-5-({[1-(3-Fluoro-6-methoxy-[1,5]naphthyridin-4-yl)-azetidin-3-yl]-methyl-amino}-methyl)-2-oxo-oxazolidin-3-yl]-4H-benzo[1,4]oxazin-3-one]
≤ 0.031	COc1ccc2nccc(N3CC[C@@H](CNC[C@@H]4CN(c5ccc6c(c5)NC(=O)CS6)C(=O)O4)C3)c2c1 [Example 173, 6-[(R)-5-({[(S)-1-(6-Methoxy-quinolin-4-yl)-pyrrolidin-3-ylmethyl]-amino}-methyl)-2-oxo-oxazolidin-3-yl]-4H-benzo[1,4]thiazin-3-one]
0.063 (≈ 0.125 µM)	COc1ccc2ncc(F)c(N3CC[C@H](NC[C@@H]4CN(c5ccc(OC(F)F)cc5)C(=O)O4)C3)c2n1 [Example 171, (R)-3-(4-Difluoromethoxy-phenyl)-5-{[(S)-1-(3-fluoro-6-methoxy-[1,5]naphthyridin-4-yl)-pyrrolidin-3-ylamino]-methyl}-oxazolidin-2-one]
≤ 0.031	COc1ccc2nccc(N3CC(NC[C@@H]4CN(c5ccc(OC(F)F)cc5)C(=O)O4)C3)c2n1 [Example 176, (R)-3-(4-Difluoromethoxy-phenyl)-5-{[1-(6-methoxy-[1,5]naphthyridin-4-yl)-azetidin-3-ylamino]-methyl}-oxazolidin-2-one]
≤ 0.031	COc1ccc2nccc(N3CC[C@H](N(C)C[C@@H]4CN(c5ccc6c(c5)OCCO6)C(=O)O4)C3)c2n1 [Example 112, (R)-3-(2,3-Dihydro-benzo[1,4]dioxin-6-yl)-5-({[(S)-1-(6-methoxy-[1,5]naphthyridin-4-yl)-pyrrolidin-3-yl]-methyl-amino}-methyl)-oxazolidin-2-one]
≤ 0.031	COc1ccc2nccc(N3CC(N(CCO)C[C@@H]4CN(c5ccc6c(c5)NC(=O)CS6)C(=O)O4)C3)c2n1 [Example 128, 6-[(R)-5-({(2-Hydroxy-ethyl)-[1-(6-methoxy-[1,5]naphthyridin-4-yl)-azetidin-3-yl]-amino}-methyl)-2-oxo-oxazolidin-3-yl]-4H-benzo[1,4]thiazin-3-one]
≤ 0.031	COc1ccc2nccc(N3CC(N(C)C[C@@H]4CN(c5ccc(C)c(Br)c5)C(=O)O4)C3)c2n1 [Example 142, (R)-3-(3-Bromo-4-methyl-phenyl)-5-({[1-(6-methoxy-[1,5]naphthyridin-4-yl)-azetidin-3-yl]-methyl-amino}-methyl)-oxazolidin-2-one]

The next lines start with the molecule.

SMILES	MIC [µg/mL]
COc1ccc2nccc(N3C[C@@H](CNC[C@@H]4CN(c5ccc6c(c5)NC(=O)CS6)C(=O)O4)[C@@H](O)C3)c2n1 (mixture of isomers) [Example 83, 6-[(R)-5-({[(3RS)-(4RS)-4-Hydroxy-1-(6-methoxy-[1,5]naphthyridin-4-yl)-pyrrolidin-3-ylmethyl]-amino}-methyl)-2-oxo-oxazolidin-3-yl]-4H-benzo[1,4]thiazin-3-one]	0.25
COc1ccc2nccc(N3CCN(CC4CN(c5ccc6c(c5)OCCO6)C(=O)O4)CC3)c2n1 (racemic) [Example 8, (RS)-3-(2,3-Dihydro-benzo[1,4]dioxin-6-yl)-5-[4-(6-methoxy-[1,5]naphthyridin-4-yl)-piperazin-1-ylmethyl]-oxazolidin-2-one]	≤ 0.031
COc1ccc2nccc(C3(O)CCN(C[C@@H]4CN(c5ccc6c(c5)NC(=O)CS6)C(=O)O4)CC3)c2c1 [Example 125, 6-{(R)-5-[4-Hydroxy-4-(6-methoxy-quinolin-4-yl)-piperidin-1-ylmethyl]-2-oxo-oxazolidin-3-yl}-4H-benzo[1,4]thiazin-3-one]	≤ 0.031
COc1cccc(N2C[C@@H](CN3CCN(c4ccnc5ccc(OC)nc45)CC3)OC2=O)c1 [Example 24, (R)-5-[4-(6-Methoxy-[1,5]naphthyridin-4-yl)-piperazin-1-ylmethyl]-3-(3-methoxy-phenyl)-oxazolidin-2-one]	0.25 (≈ 0.556 µM)
COc1ccc2nccc(N3CCN(CC4CN(c5ccc(C(F)(F)F)cn5)C(=O)O4)CC3)c2n1 (racemic) [Example 44, (RS)-5-[4-(6-Methoxy-[1,5]naphthyridin-4-yl)-piperazin-1-ylmethyl]-3-(5-trifluoromethyl-pyridin-2-yl)-oxazolidin-2-one]	0.5 (≈ 1.02 µM)
COc1ccc2ncc(F)c(N3CC(NC[C@@H]4CN(c5ccc6c(c5)OCCO6)C(=O)O4)C3)c2n1 [Example 47, (R)-3-(2,3-Dihydro-benzo[1,4]dioxin-6-yl)-5-{[1-(3-fluoro-6-methoxy-[1,5]naphthyridin-4-yl)-azetidin-3-ylamino]-methyl}-oxazolidin-2-one]	≤ 0.031
COc1ccc2nccc(N3CCN(C[C@@H]4CN(c5cccc(OC(F)(F)F)c5)C(=O)O4)CC3)c2n1 [Example 10, (R)-5-[4-(6-Methoxy-[1,5]naphthyridin-4-yl)-piperazin-1-ylmethyl]-3-(3-trifluoromethoxy-phenyl)-oxazolidin-2-one]	0.25 (≈ 0.497 µM)
COc1ccc2nccc(N3CCC(C(=O)NC[C@@H]4CN(c5ccc(C)c(F)c5)C(=O)O4)C3)c2n1 (mixture of isomers) [Example 84, (RS)-1-(6-Methoxy-[1,5]naphthyridin-4-yl)-pyrrolidine-3-carboxylic acid [(R)-3-(3-fluoro-4-methyl-phenyl)-2-oxo-oxazolidin-5-ylmethyl]-amide]	≤ 0.031
CCCc1ccc(N2C[C@@H](CN3CCN(c4ccnc5ccc(OC)nc45)CC3)OC2=O)cc1 [Example 25, (R)-5-[4-(6-Methoxy-[1,5]naphthyridin-4-yl)-piperazin-1-ylmethyl]-3-(4-propyl-phenyl)-oxazolidin-2-one]	≤ 0.031
COc1ccc2nccc(N3CCN(C[C@@H]4CN(c5ccc(N6CCCC6)cc5)C(=O)O4)CC3)c2n1 [Example 23, (R)-5-[4-(6-Methoxy-[1,5]naphthyridin-4-yl)-piperazin-1-ylmethyl]-3-(4-pyrrolidin-1-yl-phenyl)-oxazolidin-2-one]	2 (≈ 4.09 µM)
COc1ccc2nccc(N3CC(NC[C@H]4CN(c5ccc6c(c5)NC(=O)CS6)C(=O)O4)C3)c2n1 [Example 57, 6-((S)-5-{[1-(6-Methoxy-[1,5]naphthyridin-4-yl)-azetidin-3-ylamino]-methyl}-2-oxo-oxazolidin-3-yl)-4H-benzo[1,4]thiazin-3-one]	≤ 0.031
COc1ccc2nccc(N3CC(NC[C@@H]4CN(c5ccc6c(c5)NC(=O)CS6)C(=O)O4)C3)c2c1 [Example 49, 6-((R)-5-{[1-(6-Methoxy-quinolin-4-yl)-azetidin-3-ylamino]-methyl}-2-oxo-oxazolidin-3-yl)-4H-benzo[1,4]thiazin-3-one]	≤ 0.031
